This is an account of results in the supplement of paper PMC11061612.

Holding throughout (experiment): Bliss excess, mean over the matrix (fraction); higher = more synergy
The subject of assay [1] is MDA-MB-468 (Breast Carcinoma). In outline:
(§1)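 Cell lines grown in DMEM/F12 or RPMI with 10% FBS were plated in 1536-well plates and held 24 hours at 37°C, 5% CO2 before 72 hours of exposure to two-drug dose matrices, with DMSO typically at 0.2%. CellTiter-Glo 2.0 luminescence gave viability, which was converted to inhibition. Vehicle wells were set to 0 and blank wells to 1. Combination Emax is the second-highest inhibition in the matrix, and Bliss excess is the observed combination effect minus the expected EA + EB − EA·EB, where EA and EB are the single-agent effects.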

The subject of the next assay is HMV-II (Melanoma). In outline: as §1
In assay [2] the test system is SU-DHL-6 (B-Cell Non-Hodgkin's Lymphoma). In outline: as §1
Assay [3] relates to K5 (Thyroid Gland Carcinoma). In a few lines:
as §1

The test system of assay [4] is SW1116 (Colorectal Carcinoma). In outline:
as §1

Assay [5] has as its system HO-1-u-1 (Oral Cavity Carcinoma). In outline: as §1
Assay [6] deals with SUP-T1 (T-Lymphoblastic Leukemia). In outline: as §1
In assay [7] the test system is 8305C (Thyroid Gland Carcinoma). In a few lines:
as §1

In assay [8] the test system is RPMI-6666 (Non-Cancerous). In a few lines:
as §1

Assay [9] concerns KARPAS-231 (B-Cell Non-Hodgkin's Lymphoma). In a few lines:
as §1

Assay [10] has as its system HARA (Squamous Cell Lung Carcinoma). In outline:
as §1

Assay [11] relates to CAPAN-1 (Pancreatic Carcinoma). In outline: as §1
For assay [12], the system named is Hs-633T (Other Solid Carcinomas). In outline: as §1
In another assay the test system is COLO-829 (Melanoma). In a few lines:
as §1

Assay [13] concerns NCI-H69 (Small Cell Lung Carcinoma). In a few lines: as §1
Another assay has as its system Mewo (Melanoma). In outline: as §1
In assay [14] the test system is HDLM-2 (Hodgkin's Lymphoma). In a few lines:
as §1

The subject of the next assay is NCI-H2461 (Mesothelioma). In outline:
as §1

Assay [15] deals with CAL-54 (Kidney Carcinoma). In a few lines: as §1
Assay [16] concerns SK-OV-3 (Ovarian Carcinoma). In a few lines: as §1

For the compound `NC1(C(=O)N[C@@H](CCO)c2ccc(Cl)cc2)CCN(c2ncnc3[nH]ccc23)CC1` [Capivasertib] + COc1nnc2ccc(N3CCC(c4ccc(OCCN5CCN(C)C(=O)[C@H]5C)cc4)CC3)nn12 [AZD5153] (first compound max 10 µM, 7x7, partner max 1 µM), the Bliss excess is -0.0281 in assay [1]; 0.014 in the assay on HMV-II (Melanoma); -0.0424 in [2]; 0.0159 in assay [3]; -0.0236 in assay [4]; 0.0041 in [5]. In addition, the Bliss excess in assay [6] is -0.0296; in assay [7], 0.014; in [8], -0.0305; in assay [9], -0.0391; in assay [10] it was -0.0019; in [11], -0.0045. For the same compound, the Bliss excess is 0.0419 in assay [12]; 0.011 with COLO-829 (Melanoma); 0.019 in [13]; -0.0532 in the assay with Mewo (Melanoma); -0.0507 in assay [14]; -0.0007 with NCI-H2461 (Mesothelioma). The Bliss excess is -0.0039 in [15] and -0.0193 in [16].

Take `CC1(C)CCC(CN2CCN(c3ccc(C(=O)NS(=O)(=O)c4ccc(NCC5CCOCC5)c([N+](=O)[O-])c4)c(Oc4cnc5[nH]ccc5c4)c3)CC2)=C(c2ccc(Cl)cc2)C1` [Venetoclax] + Cc1cc2ncnn2cc1Nc1ncc2c(n1)n(C1CCOCC1)c(=O)n2C [AZD7648] (first compound max 1 µM, 7x7, partner max 10 µM): the Bliss excess is -0.0299 in [1]; -0.0407 in the assay with HMV-II (Melanoma); 0.049 in assay [2]; -0.103 in [3]; -0.0232 in assay [4]; -0.0307 in [5]. In addition, the Bliss excess in assay [6] is -0.0109; in [7], -0.0293; in assay [8], -0.0477; in assay [9] it was -0.124; in assay [10] it was -0.03; in [11], -0.0196. Also, the Bliss excess is -0.0154 in assay [12]; -0.0367 in the assay with COLO-829 (Melanoma); -0.0227 in assay [13]; -0.0181 in the assay with Mewo (Melanoma); 0.0551 in assay [14]; -0.0954 in the assay on NCI-H2461 (Mesothelioma). Besides, the Bliss excess was -0.0295 in assay [15] and -0.134 in assay [16].

Turning to `CCN(CCO)CCCOc1ccc2c(Nc3cc(CC(=O)Nc4cccc(F)c4)[nH]n3)ncnc2c1` [AZD2811] + C[C@@H]1COCCN1C2=NC(=NC(=C2)C3(CC3)[S@](=N)(=O)C)C4=C5C=CNC5=NC=C4 [AZD6738] (first compound max 1 µM, 7x7, partner max 10 µM), the Bliss excess is -0.0977 in assay [1]; -0.0395 in the assay on HMV-II (Melanoma); 0.0131 in assay [2]; -0.086 in assay [3]; -0.0234 in assay [4]; -0.023 in [5]. The Bliss excess was -0.0291 in assay [6]; -0.0872 in assay [7]; -0.0653 in assay [8]; 0.0064 in assay [9]; 0.0144 in assay [10]; -0.0939 in [11]. For the same compound, the Bliss excess was -0.0197 in assay [12]; -0.0217 in the assay with COLO-829 (Melanoma); -0.0552 in assay [13]; -0.0399 in the assay on Mewo (Melanoma); -0.0357 in [14]; -0.0728 with NCI-H2461 (Mesothelioma). The Bliss excess in assay [15] is -0.0383; in [16], -0.117.

Regarding `COc1cccc(OCCCN)c1-c1cc(Nc2cnc(C#N)cn2)n[nH]1` [Prexasertib] + Cc1cc2ncnn2cc1Nc1ncc2c(n1)n(C1CCOCC1)c(=O)n2C [AZD7648] (first compound max 1 µM, 7x7, partner max 10 µM), the Bliss excess was 0.0262 in assay [1]; 0.0203 with HMV-II (Melanoma); 0.0159 in assay [2]; -0.0405 in assay [3]; -0.0183 in assay [4]; 0.0035 in assay [5]. The Bliss excess in [6] was -0.0536; in assay [7], -0.0726; in assay [8] it was -0.0261; in assay [9], 0.0123; in assay [10], -0.0085; in assay [11] it was -0.0274. The Bliss excess in [12] was 0.0201; with COLO-829 (Melanoma), 0.0467; in assay [13], 0.0337; with Mewo (Melanoma), -0.0079; in assay [14], -0.0934; in the assay with NCI-H2461 (Mesothelioma), -0.0428. The Bliss excess in [15] was -0.0483; in assay [16], -0.0686.

With `Cc1c2c(nn1C)CSCc1cc(n(C)n1)CSc1cc(c3ccccc3c1)OCCCc1c(C(=O)O)n(C)c3c-2c(Cl)ccc13` [AZD5991] + Cc1cc2ncnn2cc1Nc1ncc2c(n1)n(C1CCOCC1)c(=O)n2C [AZD7648] (first compound max 1 µM, 7x7, partner max 10 µM), the Bliss excess in assay [1] was 0.008; in the assay on HMV-II (Melanoma), -0.067; in assay [2], 0.0224; in assay [3], -0.0537; in assay [4], -0.0466; in assay [5] it was -0.019. The Bliss excess in [6] is 0.0115; in assay [7], -0.0739; in [8], -0.0204; in assay [9], -0.0639; in assay [10], 0.045; in assay [11], -0.0057. Moreover, the Bliss excess in assay [12] was -0.0097; in the assay on COLO-829 (Melanoma), -0.0341; in assay [13], -0.0501; with Mewo (Melanoma), -0.0211; in [14], 0.0007; with NCI-H2461 (Mesothelioma) it was -0.0516. The Bliss excess in assay [15] was -0.0697; in assay [16] it was -0.032.

In the case of `Cc1c2c(nn1C)CSCc1cc(n(C)n1)CSc1cc(c3ccccc3c1)OCCCc1c(C(=O)O)n(C)c3c-2c(Cl)ccc13` [AZD5991] + C=CCn1c(=O)c2cnc(Nc3ccc(N4CCN(C)CC4)cc3)nc2n1-c1cccc(C(C)(C)O)n1 [AZD1775] (first compound max 1 µM, partner max 1 µM), the Bliss excess is -0.0956 in assay [1]; 0.0001 in the assay with HMV-II (Melanoma); -0.0152 in [2]; -0.0391 in assay [3]; 0.005 in [4]; 0.0396 in [5]. In addition, the Bliss excess in assay [6] was 0.0028; in assay [7] it was -0.0065; in [8], 0.0122; in assay [9] it was 0.0195; in assay [10], 0.0014; in assay [11], -0.0981. For the same compound, the Bliss excess is -0.0399 in [12]; -0.0169 with COLO-829 (Melanoma); -0.116 in [13]; -0.0347 with Mewo (Melanoma); 0.0055 in assay [14]; 0.0081 in the assay on NCI-H2461 (Mesothelioma). Moreover, the results for the Bliss excess in [15] and in assay [16] were -0.0522 and 0.0698, respectively.
